Experimental data from publication PMC12040169 (PLOS Biology, 2025).

Assay: in vitro
Settings: human, hela cells, % viability

SMILES | viability at 28.5 h, 10 µM [%]
O=S(=O)(c1ccc(C(F)(F)F)cc1Cl)N1CCN(Cc2c[nH]nc2-c2cccs2)CC1 [CBK062864] | 108
CCC(C)(C)c1ccc(S(=O)(=O)N2CCCN(Cc3ccnc4ccccc34)CC2)cc1 [CBK062865] | 92.1
CCC(C)(C)c1ccc(S(=O)(=O)N2CCCN(Cc3cccc4c3OCO4)CC2)cc1 [CBK062872] | 100
CCC(C)(C)c1ccc(S(=O)(=O)N2CCCN(Cc3c[nH]c(=O)[nH]c3=O)CC2)cc1 [CBK062881] | 91.8
CCC(C)(C)c1ccc(S(=O)(=O)N2CCCN(Cc3c(-c4ccccc4)noc3C)CC2)cc1 [CBK062888] | 92.8
CCCC(=O)c1ccc(S(=O)(=O)N2CCCN(Cc3ccc(C#N)cc3)CC2)cc1 [CBK062895] | 106
CCCC(=O)c1ccc(S(=O)(=O)N2CCCN(Cc3cc(Br)cs3)CC2)cc1 [CBK062896] | 91.2
CCCC(=O)c1ccc(S(=O)(=O)N2CCCN(Cc3cccnc3N3CCOCC3)CC2)cc1 [CBK062900] | 93.9
CCCC(=O)c1ccc(S(=O)(=O)N2CCCN(Cc3ccc4cccc(O)c4n3)CC2)cc1 [CBK062901] | 102
CCCC(=O)c1ccc(S(=O)(=O)N2CCCN(Cc3ccc(F)c(C#N)c3)CC2)cc1 [CBK062910] | 114
CCCC(=O)c1ccc(S(=O)(=O)N2CCCN(Cc3c[nH]nc3-c3ccccc3)CC2)cc1 [CBK062916] | 83.9
CCCC(=O)c1ccc(S(=O)(=O)N2CCCN(Cc3ccc(F)c(C(F)(F)F)c3)CC2)cc1 [CBK062918] | 93
N#Cc1ccc(CN2CCCN(S(=O)(=O)c3ccc(C(F)(F)F)cc3Cl)CC2)cc1 [CBK062939] | 98
CC(C)CN1CCCN(S(=O)(=O)c2ccc(C(F)(F)F)cc2Cl)CC1 [CBK062943] | 86.5
CCCC(=O)c1ccc(S(=O)(=O)N2CCCN(Cc3c(C)[nH]c(C(=O)OCC)c3C)CC2)cc1 [CBK062947] | 101
CCCC(=O)c1ccc(S(=O)(=O)N2CCN(Cc3ccc(O)c(F)c3)CC2)cc1 [CBK062959] | 111
N#Cc1ccc(CN2CCN(S(=O)(=O)c3ccc(-n4cnc(Cl)c4Cl)cc3)CC2)cc1 [CBK062972] | 104
Cc1c(F)cccc1CN1CCCN(S(=O)(=O)c2ccc(-c3ccccc3)cc2)CC1 [CBK062977] | 95.9
COC(=O)CCc1ccc(S(=O)(=O)N2CCCN(Cc3cc(Cl)cc(Cl)c3)CC2)cc1 [CBK062982] | 97.2
COC(=O)CCc1ccc(S(=O)(=O)N2CCCN(Cc3cccc(C(F)(F)F)c3)CC2)cc1 [CBK062983] | 100
COC(=O)CCc1ccc(S(=O)(=O)N2CCCN(Cc3cccc(Cl)c3Cl)CC2)cc1 [CBK062988] | 93.5

SMILES | viability at 28.5 h, 10 µM [%]
COC(=O)CCc1ccc(S(=O)(=O)N2CCCN(Cc3cccc4c3OCO4)CC2)cc1 [CBK062993] | 88.8
COC(=O)CCc1ccc(S(=O)(=O)N2CCCN(Cc3ccc(Cl)c(C(F)(F)F)c3)CC2)cc1 [CBK062995] | 102
COC(=O)CCc1ccc(S(=O)(=O)N2CCCN(Cc3cc(F)c(F)c(F)c3)CC2)cc1 [CBK062998] | 103
CC(C)CN1CCCN(S(=O)(=O)c2ccc(-n3cnc(Cl)c3Cl)cc2)CC1 [CBK063017] | 88.5
Cc1nc(CN2CCCN(S(=O)(=O)c3ccc(C(=O)c4ccccc4)cc3)CC2)c[nH]1 [CBK063029] | 113
O=S(=O)(c1ccc(C(F)(F)F)cc1Cl)N1CCCN(Cc2cccc3c2OCO3)CC1 [CBK063067] | 98.6
CC(=O)c1ccc(CN2CCN(S(=O)(=O)c3ccc(C(F)(F)F)cc3Cl)CC2)cc1 [CBK063072] | 96
O=S(=O)(c1ccc(C(F)(F)F)cc1Cl)N1CCN(Cc2ccc3cccc(O)c3n2)CC1 [CBK063073] | 94.1
Cc1cc(CN2CCN(S(=O)(=O)c3ccc(C(F)(F)F)cc3Cl)CC2)cc(C)c1O [CBK063074] | 103
O=S(=O)(c1ccc(C(F)(F)F)cc1Cl)N1CCN(Cc2cccc3cccnc23)CC1 [CBK063075] | 110
COC(=O)c1cc(CN2CCCN(S(=O)(=O)c3ccc(-n4cnc(Cl)c4Cl)cc3)CC2)cn1C [CBK063080] | 85.2
COC(=O)CCc1ccc(S(=O)(=O)N2CCCN(Cc3ccc(C)o3)CC2)cc1 [CBK063081] | 99.8
COC(=O)CCc1ccc(S(=O)(=O)N2CCCN(Cc3c[nH]c(=O)[nH]c3=O)CC2)cc1 [CBK063082] | 113
Cc1nc[nH]c1CN1CCCN(S(=O)(=O)c2ccc(-n3cnc(Cl)c3Cl)cc2)CC1 [CBK063087] | 91.7
O=S(=O)(c1ccc(-n2cnc(Cl)c2Cl)cc1)N1CCCN(Cc2ccc3cccc(O)c3n2)CC1 [CBK063088] | 92
COC(=O)c1cc(CN2CCCN(S(=O)(=O)c3ccc(C(F)(F)F)cc3Cl)CC2)cn1C [CBK063097] | 99.4
N#Cc1cc(CN2CCCN(S(=O)(=O)c3ccc(C(F)(F)F)cc3Cl)CC2)ccc1F [CBK063100] | 98.8
Cc1cc(CN2CCCN(S(=O)(=O)c3ccc(C(F)(F)F)cc3Cl)CC2)cc(C)c1O [CBK063102] | 91.2
O=S(=O)(c1ccc(-c2ccccc2)cc1)N1CCCN(Cc2cccc(F)c2F)CC1 [CBK063111] | 113
CC(=O)Oc1cccc(CN2CCCN(S(=O)(=O)c3ccc(-c4ccccc4)cc3)CC2)c1 [CBK063113] | 94.1
COC(=O)CCc1ccc(S(=O)(=O)N2CCCN(Cc3ccc4c(c3)OCO4)CC2)cc1 [CBK063130] | 106

SMILES | viability at 28.5 h, 10 µM [%]
CCCC(=O)c1ccc(S(=O)(=O)N2CCN(Cc3cccc(F)c3C)CC2)cc1 [CBK063152] | 88.4
CCCC(=O)c1ccc(S(=O)(=O)N2CCN(Cc3ccc4cccc(O)c4n3)CC2)cc1 [CBK063158] | 102
CCCC(=O)c1ccc(S(=O)(=O)N2CCN(Cc3c[nH]nc3-c3cccs3)CC2)cc1 [CBK063160] | 79.6
COc1ccc([C@@]23CC[C@@H](NC(=O)Nc4cccc(C(F)(F)F)c4F)C[C@@H]2CN(C)C3)cc1OC [CBK063195A] | 98.5
O=C(Nc1ccc2cc(Br)cnc2n1)c1ccccc1[N+](=O)[O-] [CBK063253] | 96.8
Cc1ccc(NC(=O)Nc2ccc3cc(Br)cnc3n2)c(C)c1 [CBK063269] | 85.8
CCOC(=O)NC(=O)Nc1cc2ccccc2c(Br)n1 [CBK063282] | 88.1
O=C(Nc1cc2cccnc2c(Br)n1)Nc1ccc(F)cc1C(F)(F)F [CBK063287] | 88.8
CCCCOc1ccc(NC(=O)Nc2cc3cccnc3c(Br)n2)cc1 [CBK063291] | 78.1
Cc1ccccc1C(=O)NCC(=O)Nc1cc2ccccc2c(Br)n1 [CBK063298] | 89.4
CC(=O)OCC(=O)Nc1ccc2cc(Br)cnc2n1 [CBK063311] | 91.1
Cc1ccccc1C(=O)NCC(=O)Nc1ccc2cc(Br)cnc2n1 [CBK063312] | 96.5
O=C(Nc1ccc2cc(Br)cnc2n1)C(F)(F)F [CBK063313] | 90
O=C1N=C(N2CCCCCC2)SC1CC(=O)N1CCCc2ccccc21 (centres unmarked) [CBK063336] | 93.4
O=C1N=C(NC2CCCCCC2)SC1CC(=O)N1CCCC1 (centres unmarked) [CBK063342] | 95.3
COc1ccccc1-c1cnc(N)c(NCc2ccccc2)n1 [CBK063357] | 94.3
CC(=O)Nc1cccc(-c2cnc(N)c(N3CCN(C)CC3)n2)c1 [CBK063361] | 107
Nc1ncc(-c2cccc(O)c2)nc1N1CCOCC1 [CBK063376] | 100
CN(C)CCNC(=O)c1cccc(-c2cnc(N)c(N3CCN(C)CC3)n2)c1 [CBK063393] | 95
Nc1ncc(-c2ccccc2CO)nc1N1CCN(CCO)CC1 [CBK063404] | 100
Nc1ncc(-c2cccc(O)c2)nc1N1CCC(C(=O)O)CC1 [CBK063405] | 85.3

SMILES | viability at 28.5 h, 10 µM [%]
Nc1ncc(-c2cccc(CO)c2)nc1N1CCOCC1 [CBK063406] | 97.6
Nc1ncc(-c2cccc(-c3ccccc3)c2)nc1N1CCN(CCO)CC1 [CBK063410] | 113
Nc1ncc(-c2cccc(C(=O)O)c2)nc1N1CCOCC1 [CBK063415] | 101
CN1CCN(c2nc(-c3ccc(-c4ccccc4)cc3)cnc2N)CC1 [CBK063421] | 106
Nc1ncc(-c2cncnc2)nc1N1CCOCC1 [CBK063422] | 93.7
CN1CCN(c2nc(-c3ccco3)cnc2N)CC1 [CBK063449] | 109
Nc1ncc(-c2ccccc2)nc1NCc1cccnc1 [CBK063452] | 116
NC(=O)c1cccc(-c2cnc(N)c(N3CCC[C@@H]3CO)n2)c1 [CBK063458] | 99.5
CN1CCN(c2nc(-c3cccc4ncccc34)cnc2N)CC1 [CBK063465] | 107
Nc1ncc(-c2cccc3cccnc23)nc1N1CCC[C@@H]1CO [CBK063470] | 108
COc1cc(-c2cnc(N)c(N3CCC[C@@H]3CO)n2)cc(OC)c1OC [CBK063478] | 101
CN(C)CCN1CCN(c2nc(-c3cccc4ccccc34)cnc2N)CC1 [CBK063479] | 94.7
Nc1ncc(-c2ccc3c(c2)OCO3)nc1NCc1ccncc1 [CBK063483] | 106
CN(C)CCN1CCN(c2nc(-c3ccc4c(c3)OCO4)cnc2N)CC1 [CBK063495] | 93.9
COc1ccc(-c2cnc(N)c(N3CCC[C@@H]3CO)n2)c(OC)c1OC [CBK063505] | 98.5
Nc1ncc(-c2cccc3ccccc23)nc1N1CCC[C@@H]1CO [CBK063517] | 94.1
COc1cc(-c2cnc(N)c(NCC(C)(C)CO)n2)cc(OC)c1OC [CBK063523] | 92.2
COc1ccc(-c2cnc(N)c(NCc3cccnc3)n2)c(OC)c1OC [CBK063540] | 99
COc1ccc(-c2cnc(N)c(NCC(C)(C)CO)n2)c(OC)c1OC [CBK063542] | 103
Nc1ncc(-c2ccc(F)c(Cl)c2)nc1NCCCO [CBK063555] | 101
